One experiment has as its system DNA. As to conditions: Bos taurus.
Another experiment relates to P388. In words: Antitumor activity against Mus musculus (mouse) P388 cells xenografted in Mus musculus (mouse) assessed as increase in survival time relative to control. The class given is functional. Also on record: concentration or dose not given beside the values.

These results are taken from ChEMBL document CHEMBL3045087, “Physicochemical interaction of antitumor acridinone derivatives with DNA in view of QSAR studies” (2011).

Description for DNA: Binding affinity to Bos taurus (calf) thymus DNA assessed as change in melting temperature at drug to DNA base pair ratio 0.25 M

Turning to `CN(C)CCNc1ccc2ncn3c4ccc(O)cc4c(=O)c1c23`, in the experiment on DNA, the thermal shift (ΔTm) was 12.3 °C. For the same compound, the “Increase in survival time” value in the experiment with P388 amounted to 110%.

Consider `CN(C)CCNc1ccc2ncn3c4ccccc4c(=O)c1c23`, for which, in the experiment with DNA, the ΔTm worked out at 9.5 °C. For the same compound, in the experiment with P388, the “Increase in survival time” value amounted to 90%.

On to `CN(C)CCCCCNc1ccc2ncn3c4ccccc4c(=O)c1c23`, for which the shift in melting temperature (ΔTm) in the experiment with DNA came out at 9.9 °C. Besides, the “Increase in survival time” value with P388 is on record as 10%.

In the case of `CCN(CC)CCNc1ccc2ncn3c4ccc(OC)cc4c(=O)c1c23`, the shift in melting temperature (ΔTm) in the experiment with DNA was 11.5 °C. Moreover, in the experiment with P388, the “Increase in survival time” value came to 96%.

For the compound `CN(C)CCNc1ccc2nnn3c4ccccc4c(=O)c1c23`, the thermal shift (ΔTm) in the experiment on DNA is 9.1 °C. Besides, the “Increase in survival time” value in the experiment on P388 was found to be 77%.

For `CN(C)CCCCCNc1ccc2ncn3c4ccc(O)cc4c(=O)c1c23`, the ΔTm with DNA stood at 13.1 °C. In addition, the “Increase in survival time” value in the experiment on P388 is given as 85%.

For `CCN(CC)CCCCCNc1ccc2ncn3c4ccc(C)cc4c(=O)c1c23`, the shift in melting temperature (ΔTm) with DNA is 10.5 °C. Besides, the “Increase in survival time” value in the experiment with P388 was determined as 20%.

As to `CN(C)CCNc1ccc2nnn3c4ccc(O)cc4c(=O)c1c23`, the thermal shift (ΔTm) in the experiment on DNA was 13.1 °C. In addition, the “Increase in survival time” value in the experiment with P388 amounted to 102%.

On to `CCN(CC)CCNc1ccc2ncn3c4ccc(C(C)(C)C)cc4c(=O)c1c23`, for which, in the experiment on DNA, the ΔTm is 2.4 °C. Further, in the experiment with P388, the “Increase in survival time” value worked out at 0%.

Consider `CN(C)CCCNc1ccc2ncn3c4ccc(O)cc4c(=O)c1c23`, for which, in the experiment on DNA, the shift in melting temperature (ΔTm) worked out at 3.5 °C. Also, the “Increase in survival time” value in the experiment with P388 stood at 120%.

On to `CCNCCNc1ccc2nnn3c4ccc(O)cc4c(=O)c1c23`, for which the ΔTm in the experiment on DNA amounted to 7.1 °C. For the same compound, the “Increase in survival time” value in the experiment on P388 was 78%.

In the case of `CCN(CC)CCNc1ccc2ncn3c4ccc(O)cc4c(=O)c1c23` [C-1311], the ΔTm in the experiment with DNA amounted to 13.7 °C. Besides, the “Increase in survival time” value with P388 was determined as 93%.

For the compound `CN(C)CCCNc1ccc2ncn3c4ccccc4c(=O)c1c23`, the shift in melting temperature (ΔTm) in the experiment on DNA stood at 11.5 °C. Further, the “Increase in survival time” value with P388 is reported as 25%.

For the compound `CCN(CC)CCNc1ccc2ncn3c4ccccc4c(=O)c1c23`, the ΔTm in the experiment on DNA worked out at 7.2 °C. The “Increase in survival time” value in the experiment on P388 is 55%.

With `CCN(CC)CCNc1ccc2ncn3c4cc(O)ccc4c(=O)c1c23`, the thermal shift (ΔTm) in the experiment on DNA turned out to be 8.3 °C. Also, the “Increase in survival time” value in the experiment on P388 was found to be 27%.

For `Cc1ccc2c(c1)c(=O)c1c(NCCCN(C)C)ccc3nnn2c31`, the shift in melting temperature (ΔTm) with DNA was 11.5 °C. Moreover, the “Increase in survival time” value in the experiment on P388 is 18%.

For `CCN(CC)CCNc1ccc2nc(C)n3c4ccc(O)cc4c(=O)c1c23`, the thermal shift (ΔTm) in the experiment with DNA is 15.3 °C. In addition, the “Increase in survival time” value in the experiment with P388 is 185%.

With `CN(C)CCCNc1ccc2nnn3c4ccc(O)cc4c(=O)c1c23`, the ΔTm in the experiment on DNA is 15.1 °C. Also, the “Increase in survival time” value with P388 was 165%.

As to `CN(C)CCNc1ccc2nnn3c4ccc(C(C)(C)C)cc4c(=O)c1c23`, in the experiment on DNA, the ΔTm came out at 6.8 °C. In addition, the “Increase in survival time” value in the experiment on P388 worked out at 0%.

For `CN(C)CCN(C)c1ccc2nnn3c4ccc(O)cc4c(=O)c1c23`, the ΔTm with DNA turned out to be 8.1 °C. In the experiment on P388, the “Increase in survival time” value is 10%.
